In patent US9840500B2, “Compounds as dual inhibitors of histone methyltransferases and DNA methyltransferases” (FUNDACIÓN PARA LA INVESTIGACIÓN MÉDICA APLICADA, priority 2014, dated 2017) one finds IC50 and GI50 data, which are given here for two compounds.

In assay [1] the target is DNMT3A/3L (Homo sapiens, UniProt Q9Y6K1). As to the kind of experiment: DNMT3A enzyme activity assay (chemiluminescence BPS DNMT Universal Assay Kit). In kind it is biochemical. The method, then:
DNMT3A and DNMT3B activity assays were carried out with the chemiluminiscence BPS DNMT Universal Assay Kit (BPS#52035) using a strip 96-well plate pre-coated with DNMT substrate.
The enzyme activity assay protocol is as follows: • Rehydrate the microwells by adding 150 μL of TBST buffer (1× Tris-buffered saline (TBS), pH 8.0, containing 0.05% Tween-20) to every well. Incubate 15 minutes at room temperature. • Dilute each purified DNMT [DNMT3A/3L (BPS#51106) or DNMT3B/3L (BPS#51109)] in 1×DNMT assay buffer 2 (BPS#52201) at 5-10 ng/μL. Keep diluted enzyme on ice until use. • Prepare 50 μL of reaction mixture consisting of 20 μL of DNMT (5-10 ng/μL), 12.5 μL of 4×DNMT assay buffer 2 (BPS#52201), 2.5 μL of S-adenosylmethionine 400 μM, test compound at concentrations ranging from 3 nM to 10 μM and H2O up to 50 μL. • Add the entire reaction mixture to the substrate coated wells. […]
Incubate for 30 min at room temperature with slow shaking. • Wash plate three times with TBST buffer and incubate in Blocking buffer shaking on a rotating platform for 10 min. […] Immediately read luminescence using a BioTek Synergy™2 microplate reader.
The chemiluminescence intensity data were analyzed and compared. […] Calculated IC50 values were determined using non-linear regression analysis of Sigmoidal dose-response curve generated with a four-parameters inhibition curve.

Assay [2] relates to LAL-CUN-2. Description: Cell proliferation assay, LAL-CUN-2 (ALL). In kind it is cell-based.
The subject of assay [3] is OCI-Ly3. Description: Cell proliferation assay, OCI-Ly3 (ABC-DLBCL). The conditions noted are these: Homo sapiens, 48 hours of treatment, Table 3. It is filed as cell-based.
The subject of assay [4] is OCI-Ly10. As to the kind of experiment: Cell proliferation assay, OCI-Ly10 (ABC-DLBCL). It is filed as cell-based. To be noted: Homo sapiens, 48 hours of treatment, Table 3. The method, then: (§1) Cell proliferation was analyzed after 48 hours of in vitro treatment using the CellTiter 96 Aqueous One Solution Cell Proliferation Assay (Promega, Madison, Wis.). This is a colorimetric method for determining the number of viable cells in proliferation.
(§2) For the assay, suspension cells were cultured by triplicate at a density of 1×10^6 cells/ml in 96-well plates (100.000 cells/well, 100 μl/well), except for OCILY-3 and OCILY-10 cell lines which were cultured at a density of 0.5×10^6 cells/ml (50.000 cells/well, 100 μl/well) and for HepG2, Hep3B and PLC/PRF/5 cell ines which were cultured at a density of 3000 cells/well, 100 μl/well). Adherent cells were obtained from 80-90% confluent flasks and 100 μl of cells were seeded at a density of 5000 cells/well in 96-well plates by triplicate. Before addition of the compounds, adherent cells were allowed to attach to the bottom of the wells for 12 hours. In all cases, only the 60 inner wells were used to avoid any border effects.
(§3) After 48 hours of treatment, plates with suspension cells were centrifuged at 800 g for 10 minutes and medium was removed. The plates with adherent cells were flicked to remove medium. Then, cells were incubated with 100 ul/well of medium and 20 ul/well of CellTiter 96 Aqueous One Solution reagent. After 1-3 hours of incubation at 37° C., absorbance was measured at 490 nm in a 96-well plate reader. The background absorbance was measured in wells with only cell line medium and solution reagent. Data was calculated as a percentage of total absorbance of treated cell/absorbance of non treated cells.

Assay [5] relates to Hep3B. As to the kind of experiment: Cell proliferation assay, Hep3B (HCC). In kind it is cell-based. To be noted: Homo sapiens, 48 hours of treatment, Table 3.
Assay [6] relates to RT112. Description: Cell proliferation assay, RT112 (Bladder). To be noted: Homo sapiens, RT-112, 48 hours. It is filed as cell-based. The method, then:
as §1
as §2, with “In all cases, only the 60 inner wells were used to avoid any border effects.” left out
(§4) After 48 hours of treatment, plates with suspension cells were centrifuged at 800 g for 10 minutes and medium was removed. […] After 1-3 hours of incubation at 37° C., absorbance was measured at 490 nm in a 96-well plate reader. The background absorbance was measured in wells with only cell line medium and solution reagent. Data was calculated as a percentage of total absorbance of treated cell/absorbance of non treated cells. […]

The subject of assay [7] is UM-UC-7. Description: Cell proliferation assay, UM-UC-7 (Bladder). It is filed as cell-based. The conditions noted are these: 48 hours. The method, then: as §1
as §2, with “In all cases, only the 60 inner wells were used to avoid any border effects.” left out
as §4

The subject of assay [8] is MCF-7. Description: Cell proliferation assay, MCF-7 (Breast). In kind it is cell-based. To be noted: Homo sapiens, MCF7, 48 hours. The method, then:
as §1
as §2, with “In all cases, only the 60 inner wells were used to avoid any border effects.” left out
as §4

In assay [9] the test system is HELA. Description: Cell proliferation assay, HELA (Cervical). In kind it is cell-based. To be noted: Homo sapiens, 48 hours. The method, then: as §1
as §2, with “In all cases, only the 60 inner wells were used to avoid any border effects.” left out
as §4

The subject of assay [10] is HUH7. Description: Cell proliferation assay, HUH7 (Hepatocarcinoma). In kind it is cell-based. The conditions noted are these: Homo sapiens, Huh-7, 48 hours. The method, then: as §1
as §2, with “In all cases, only the 60 inner wells were used to avoid any border effects.” left out
as §4

Assay [11] concerns Sk-Hep1. As to the kind of experiment: Cell proliferation assay, Sk-Hep1 (Hepatocarcinoma). It is filed as cell-based. The conditions noted are these: Homo sapiens, 48 hours. The method, then: as §1
as §2, with “In all cases, only the 60 inner wells were used to avoid any border effects.” left out
as §4

The test system of assay [12] is A375. As to the kind of experiment: Cell proliferation assay, A375 (Melanoma). In kind it is cell-based. To be noted: Homo sapiens, A-375, 48 hours. The method, then:
as §1
as §2, with “In all cases, only the 60 inner wells were used to avoid any border effects.” left out
as §4

Assay [13] relates to SK-MEL-103. As to the kind of experiment: Cell proliferation assay, SK-MEL-103 (Melanoma). In kind it is cell-based. The conditions noted are these: Homo sapiens, 48 hours. The method, then: as §1
as §2, with “In all cases, only the 60 inner wells were used to avoid any border effects.” left out
as §4

Assay [14] deals with SK-MEL-147. As to the kind of experiment: Cell proliferation assay, SK-MEL-147 (Melanoma). In kind it is cell-based. To be noted: Homo sapiens, 48 hours. The method, then: as §1
as §2, with “In all cases, only the 60 inner wells were used to avoid any border effects.” left out
as §4

Assay [15] has as its system CAKI-2. Description: Cell proliferation assay, CAKI-2 (Renal). The conditions noted are these: Homo sapiens, 48 hours. In kind it is cell-based. The method, then: as §1
as §2, with “In all cases, only the 60 inner wells were used to avoid any border effects.” left out
as §4

The subject of assay [16] is HCC95. As to the kind of experiment: Cell proliferation assay, HCC95 (small-cell lung cancer). In kind it is cell-based. The conditions noted are these: Homo sapiens, non-small-cell lung cancer, 48 hours. The method, then:
as §1
as §2, with “In all cases, only the 60 inner wells were used to avoid any border effects.” left out
as §4

For assay [17], the system named is OCI-Ly1. As to the kind of experiment: Cell proliferation assay, OCI-Ly1 (GC-DLBCL). In kind it is cell-based. The conditions noted are these: Homo sapiens, 48 hours. The method, then:
as §1
as §2, with “In all cases, only the 60 inner wells were used to avoid any border effects.” left out
as §4

Assay [18] relates to OCI-Ly7. As to the kind of experiment: Cell proliferation assay, OCI-Ly7 (GC-DLBCL). In kind it is cell-based. The conditions noted are these: Homo sapiens, 48 hours. The method, then:
as §1
as §2, with “In all cases, only the 60 inner wells were used to avoid any border effects.” left out
as §4

Assay [19] concerns SU-DHL-7. Description: Cell proliferation assay, SU-DHL-7 (GC-DLBCL). In kind it is cell-based. To be noted: 48 hours. The method, then: as §1
as §2, with “In all cases, only the 60 inner wells were used to avoid any border effects.” left out
as §4

For assay [20], the system named is MV411. As to the kind of experiment: Cell proliferation assay, MV411 / MV4-11 (AML). The conditions noted are these: Homo sapiens. In kind it is cell-based. The method, then:
as §1, §2, §3
Compounds 3-04 and 3-07 were tested against different solid tumour and oncohematological cell lines using the cell proliferation protocol described above.

Assay [21] relates to HBL-2. Description: Cell proliferation assay, HBL-2 (MCL). In kind it is cell-based. The conditions noted are these: HBL2, 48 hours. The method, then:
as §1
as §2, with “In all cases, only the 60 inner wells were used to avoid any border effects.” left out
as §4

In assay [22] the test system is KMS28BM. As to the kind of experiment: Cell proliferation assay, KMS28BM (MM). To be noted: KMS-28BM, 48 hours. It is filed as cell-based. The method, then: as §1
as §2, with “In all cases, only the 60 inner wells were used to avoid any border effects.” left out
as §4

Chain of DNMT3A/3L (Q9Y6K1 whole entry, looked up): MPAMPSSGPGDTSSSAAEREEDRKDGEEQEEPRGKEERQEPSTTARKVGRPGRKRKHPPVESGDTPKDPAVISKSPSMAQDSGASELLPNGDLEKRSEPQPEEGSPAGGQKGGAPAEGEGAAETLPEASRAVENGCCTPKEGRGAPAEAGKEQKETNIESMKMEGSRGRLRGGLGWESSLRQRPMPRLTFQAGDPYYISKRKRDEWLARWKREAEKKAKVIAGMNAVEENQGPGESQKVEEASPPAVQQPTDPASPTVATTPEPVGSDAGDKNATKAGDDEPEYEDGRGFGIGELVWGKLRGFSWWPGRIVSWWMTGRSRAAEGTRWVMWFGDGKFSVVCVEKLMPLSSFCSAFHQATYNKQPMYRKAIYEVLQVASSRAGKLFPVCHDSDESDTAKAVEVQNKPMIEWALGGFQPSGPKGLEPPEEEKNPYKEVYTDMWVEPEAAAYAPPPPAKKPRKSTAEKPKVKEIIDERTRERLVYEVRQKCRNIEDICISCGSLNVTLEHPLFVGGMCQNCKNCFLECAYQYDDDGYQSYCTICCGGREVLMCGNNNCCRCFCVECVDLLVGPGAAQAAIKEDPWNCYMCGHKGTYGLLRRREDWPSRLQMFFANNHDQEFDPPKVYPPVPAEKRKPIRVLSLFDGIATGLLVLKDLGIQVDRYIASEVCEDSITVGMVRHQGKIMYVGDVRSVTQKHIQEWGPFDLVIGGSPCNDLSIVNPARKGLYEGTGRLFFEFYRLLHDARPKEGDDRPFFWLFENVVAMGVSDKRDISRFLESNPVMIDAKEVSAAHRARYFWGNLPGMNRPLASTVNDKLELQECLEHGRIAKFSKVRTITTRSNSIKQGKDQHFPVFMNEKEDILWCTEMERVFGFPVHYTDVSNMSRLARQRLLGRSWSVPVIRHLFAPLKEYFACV
Chain of DNMT3A/3L (Q9UJW3 whole entry partner): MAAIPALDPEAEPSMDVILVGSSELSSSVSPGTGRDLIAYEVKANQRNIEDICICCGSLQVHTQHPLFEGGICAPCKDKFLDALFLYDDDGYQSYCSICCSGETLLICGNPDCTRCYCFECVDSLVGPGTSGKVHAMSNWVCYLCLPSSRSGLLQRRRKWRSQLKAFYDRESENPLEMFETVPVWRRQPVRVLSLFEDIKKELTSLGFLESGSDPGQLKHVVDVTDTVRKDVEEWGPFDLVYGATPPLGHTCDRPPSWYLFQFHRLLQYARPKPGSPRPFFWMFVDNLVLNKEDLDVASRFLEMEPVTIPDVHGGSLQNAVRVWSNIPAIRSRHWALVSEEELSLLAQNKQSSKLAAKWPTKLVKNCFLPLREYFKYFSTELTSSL

Usually IC50 stands for the concentration that gives 50% inhibition. The GI50 is the concentration at which growth is held to half of that of the control. The low end stands for greater sensitivity of the cells, the high end for lower sensitivity of the cells. On to `COc1cc2c(NC3CCN(C)CC3)cc(-c3ccc(C)o3)nc2cc1OCCCN1CCCC1.O=C(O)C(F)(F)F` [Compound 3-04, 6-methoxy-2-(5-methyl-2-furyl)-N-(1-methyl-4-piperidyl)-7-(3-pyrrolidin-1-ylpropoxy)quinolin-4-amine; 2,2,2-trifluoroacetic acid], for which the concentration for half-maximal inhibition (IC50) in assay [1] was less than 0.1 µM. For the same compound, the GI50 was 0.1 to 1 µM in [2] (48 hours of treatment, Table 3); 0.1 to 1 µM in assay [2] (ALL, Table 5 comparison); 0.1 to 1 µM in [3]; 0.1 to 1 µM in assay [4]; 0.1 to 1 µM in assay [5]; 0.1 to 1 µM in [6]. Moreover, the 50% growth inhibitory concentration (GI50) was 0.1 to 1 µM in [7]; 0.1 to 1 µM in [8]; 0.1 to 1 µM in assay [9]; no more than 0.1 µM in assay [10]; 0.1 to 1 µM in assay [11]; 0.1 to 1 µM in assay [12]. Moreover, the GI50 in assay [13] lay in the range of 0.1 to 1 µM; in assay [14], 0.1 to 1 µM; in [15] it was 1 to 10 µM; in assay [16] it was 0.1 to 1 µM; in assay [17], 0.1 to 1 µM; in [18], 0.1 to 1 µM. Also, the GI50 in assay [19] lay within 0.1 to 1 µM; in assay [20] (MV4-11, 48 hours, Table 4), 0.1 to 1 µM; in assay [20] (MV4-11, Table 5 comparison), 0.1 to 1 µM; in assay [21], 0.1 to 1 µM; in assay [22], 1 to 10 µM.
For `COc1cc2c(NCC3CCN(C)CC3)cc(-c3ccc(C)o3)nc2cc1OCCCN1CCCC1` [Compound 3-07], the IC50 in assay [1] is less than 0.1 µM. Also, the GI50 in assay [2] (48 hours of treatment, Table 3) is 0.1 to 1 µM; in assay [2] (ALL, Table 5 comparison) it was 0.1 to 1 µM; in assay [3], 0.1 to 1 µM; in assay [5] it was 0.1 to 1 µM; in assay [6] it was 0.1 to 1 µM; in assay [7], 0.1 to 1 µM. For the same compound, the concentration for 50% growth inhibition (GI50) in [8] was 1 to 10 µM; in [9], 0.1 to 1 µM; in [10] it was 0.1 to 1 µM; in [11] it was 0.1 to 1 µM; in assay [12], no more than 0.1 µM; in assay [13] it was no more than 0.1 µM. For the same compound, the GI50 was no more than 0.1 µM in [14]; 0.1 to 1 µM in [15]; 0.1 to 1 µM in assay [16]; 0.1 to 1 µM in assay [20] (MV4-11, 48 hours, Table 4); 0.1 to 1 µM in [20] (MV4-11, Table 5 comparison).
